Laboratory results: patent US6949533B2, “6,7-Oxygenated steroids and uses related thereto” (Inflazyme Pharmaceuticals Ltd., priority 1996, dated 2005)

Legend:
[1] = system: passively sensitized rat mast cells (RBL-2H3); assay: antigen-induced release of hexosaminidase from RBL-2H3 cells; assay type: cell-based; conditions: antigen-induced hexosaminidase release; for inhibition at 25 µM: Rattus norvegicus, RBL-2H3, 25 μM compound, read-out: Percentage Inhibition (mean) RBL-2H3 Cells
Experimental: (§1) The anti-allergic effects of various polyhydroxylated steroids of the present invention were evaluated by measuring their effect on antigen-induced secretion of hexosaminidase from a passively sensitized rat mast cell line (RBL-2H3) and a murine mast cell line (MC/9). The ability of agents to inhibit the release of mast cell granule contents, e.g., histamine and hexosaminidase, is indicative of anti-allergy and/or anti-asthma activity.
(§2) Hexosaminidase is released from the mast cell granule along with histamine and other mediators during antigen challenge. RBL-2H3 and MC/9 cells were grown in culture and passively sensitized to dinitrophenol (DNP) using anti-human-DNP (IgE). Cells were incubated with each compound (25 μM) for 1 hour at 37° C. and then stimulated with 0.1 mg/ml DNP-HSA (antigen) for 15 min. Aliquots of the supernatant were removed and used to measure the amount of hexosaminidase released during challenge with the antigen. The amount of hexosaminidase present in the supernatant was determined calorimetrically by monitoring the enzymatic metabolism of p-nitrophenyl-N-acetyl-β-D-glucosaminide (p-NAG) over a period of 1 hour at 410 nm. The effect of each compound was determined as a percentage of the antigen-induced response (minus background release) obtained in the presence of DMSO alone, as set forth in Tables 2 and 3. These values were used to determine the degrees of inhibition of antigen-induced hexosaminidase release from the cells.

mouse mast cells (MC/9) = assay: antigen-induced release of hexosaminidase from MC/9 cells; assay type: cell-based; conditions: for inhibition at 25 µM: Mus musculus, MC9, 25 μM compound, read-out: Percentage Inhibition (mean) MC/9 cells
Experimental: as §1, §2

guinea pig ileum = assay: antigen-induced contraction of ileum from sensitized guinea pigs; conditions: Cavia porcellus, read-out: Percentage Inhibition, 30 μM compound, n = 3-4
Experimental: The ability of compounds to inhibit allergen-induced contraction of ileum from sensitized animals is indicative of antiallergic activity. Sensitized guinea pig ileum is particularly useful in measuring the immediate allergic response.
The guinea pig ileum has been used to evaluate the ability of compounds to inhibit allergan-induced histamine and mediator release causing smooth muscle contraction. Guinea pigs were sensitized by an intraperitoneal injection of 100 mg ovalbumin and an intramuscular injection of 50 mg ovalbumin on day 0, followed by a second intramuscular injection of 50 mg ovalbumin on day 1. […] Segments of ileum were prepared and suspended, with muscle contractions being measured in the longitudinal plane, in Tyrode's buffer at 37° C. and aerated with 5% CO2 in O2. Tissues were suspended under a resting tension of 2 grams and isometric contractions were measured using force-displacement transducers coupled to a polygraph. Tissues were stimulated with 3 μM histamine 3 times to ensure reproducible contractions were obtained. Tissues were then incubated with each compound (30 μM) or 0.15% dimethylsulphoxide (DMSO) as a control, for 20 min, after which time the tissues were challenged with 100 μg/ml ovalbumin. The magnitude of the contraction induced by OA in the presence of each compound was expressed as a percentage of the contraction obtained to 3 μM histamine. The protective effects of the various compounds on OA-induced contraction of guinea pig ileum from sensitized animals are summarized in Table 4.

sensitized guinea pigs = assay: allergen-induced changes in lung resistance and compliance in vivo; design: species or system guinea pig; conditions: 5 mg/kg/day for 4 days p.o.
Experimental: Female Cam Hartley guinea pigs (350-400 g) are sensitized to ovalbumin by exposure of the guinea pigs to a nebulized solution of 1% ovalbumin in saline for 15 minutes. After 10-12 days, the animals are found to be acutely sensitized to the allergen (ovalbumin). Animals are treated by oral gavage, under light halothane anesthesia, with 300 μl polyethyleneglycol-200 (PEG) or 5 mg/Kg of test compound in 300 μl of PEG. Animals are treated once daily for 4 days with the final dose administered 2 hours prior to allergen challenge. Alternatively, compounds were delivered by inhalation, using a Hudson nebulizer driven by 6 psi oxygen, providing a single dose of 50 μg/Kg 20 min prior to challenge.
An animal is anaesthetized using ketamine ([…]; i.p.) and xylazine (10 mg/Kg; i.p.) and 1% halothane during the surgical procedure. A tracheostomy is performed and a water-filled esophageal cannula is inserted prior to positioning the animal in a body plethysmograph. The tracheal cannula is attached to a fixed tracheal cannula in the plethysmograph. Cardiac function is monitored using electrocardiography. The animal is paralyzed using pancuronium bromide (0.8 mg/Kg; i.m.) and ventilated with 3 ml tidal breaths using a Harvard small animal ventilator, at a frequency of 60 breaths per minute. Pulmonary resistance and dynamic lung compliance data are obtained from volume, flow and transpulmonary pressure signals using multipoint analysis.
Pulmonary function is continually monitored throughout the experiment and measurements of lung resistance and lung compliance are made at various time-points (e.g., 0, 1, 2, 3, 4, 5, 10, 20 and 30 min) following antigen challenge. Data is collected on a computer-linked physiological measurement system using DIREC Physiological recording software and analyzed using ANADAT software designed for lung mechanics measurements. This software was obtained from RHT-InfoDat Inc., Montreal, Quebec, Canada.
Once baseline resistance and compliance measurements are obtained, the animal is challenged with 6 breaths of saline. After 10 minutes, during which time no alterations in lung function should occur, the animal is challenged with 6 breaths of 2 or 3% ovalbumin in saline (as the antigen stimulus). Saline and antigen are delivered in each breath using a Hudson nebulizer.

## C/C=C1/CCC2C3C(CC[C@]12C)[C@@]1(C)CCC(=O)CC1[C@@H](O)[C@@H]3O (stereo partly drawn) [Compound 335]
[1]
  inhibition at 25 µM: 56%
Mouse mast cells (MC/9)
  inhibition at 25 µM: 69%
Guinea pig ileum
  inhibition at 30 µM: 30.7%

## C/C=C1/CCC2C3C(CC[C@]12C)[C@@]1(C)CC[C@@H](Cl)CC1[C@H]1OC(C)(C)O[C@H]31 (stereo partly drawn) [Compound 336]
Guinea pig ileum
  inhibition at 30 µM: 79.3%

## C/C=C1/CCC2C3C(CC[C@]12C)[C@@]1(C)CC[C@@H](Cl)CC1[C@@H](O)[C@@H]3O (stereo partly drawn) [Compound 337]
[1]
  inhibition at 25 µM: 44%
Mouse mast cells (MC/9)
  inhibition at 25 µM: 56%
Guinea pig ileum
  inhibition at 30 µM: 50.7%

## C/C=C1/CCC2C3C(CC[C@]12C)[C@@]1(C)CC[C@@H](O)CC1[C@H]1OC(C)(C)O[C@H]31 (stereo partly drawn) [Compound 338]
Guinea pig ileum
  inhibition at 30 µM: 64%

## C=C1CCC2C3C(CC[C@]12C)[C@@]1(C)CC[C@H](O)CC1[C@@H](O)[C@@H]3O (stereo partly drawn) [Compound 342]
[1]
  inhibition at 25 µM: 57%
Mouse mast cells (MC/9)
  inhibition at 25 µM: 39%
Guinea pig ileum
  inhibition at 30 µM: 28.3%
Sensitized guinea pigs; 1 min after challenge
  Lung Compliance: 0.154 ± 0.055 ml/cm H2O
  Lung Resistance: 0.453 ± 0.120 cm H2O/ml/sec
Sensitized guinea pigs; 2 min after challenge
  Lung Compliance: 0.073 ± 0.038 ml/cm H2O
  Lung Resistance: 1.786 ± 0.82 cm H2O/ml/sec
Sensitized guinea pigs; 3 min after challenge
  Lung Compliance: 0.044 ± 0.022 ml/cm H2O
  Lung Resistance: 1.930 ± 0.55 cm H2O/ml/sec
Sensitized guinea pigs; 4 min after challenge
  Lung Compliance: 0.044 ± 0.022 ml/cm H2O
  Lung Resistance: 1.621 ± 0.36 cm H2O/ml/sec
Sensitized guinea pigs; 5 min after challenge
  Lung Compliance: 0.038 ± 0.015 ml/cm H2O
  Lung Resistance: 1.4816 ± 0.32 cm H2O/ml/sec
Sensitized guinea pigs; 10 min after challenge
  Lung Compliance: 0.048 ± 0.005 ml/cm H2O
  Lung Resistance: 1.002 ± 0.14 cm H2O/ml/sec
Sensitized guinea pigs; 20 min after challenge
  Lung Compliance: 0.084 ± 0.005 ml/cm H2O
  Lung Resistance: 0.524 ± 0.08 cm H2O/ml/sec
Sensitized guinea pigs; 30 min after challenge
  Lung Compliance: 0.109 ± 0.006 ml/cm H2O
  Lung Resistance: 0.354 ± 0.04 cm H2O/ml/sec
Sensitized guinea pigs; Baseline
  Lung Compliance: 0.444 ± 0.037 ml/cm H2O
  Lung Resistance: 0.212 ± 0.020 cm H2O/ml/sec
Sensitized guinea pigs; OA/10 s
  Lung Compliance: 0.464 ± 0.031 ml/cm H2O
  Lung Resistance: 0.223 ± 0.020 cm H2O/ml/sec

## C[C@H]1CCC2C3C(CC[C@@]21C)[C@@]1(C)CC[C@H](O)CC1[C@@H](O)[C@@H]3O (stereo partly drawn) [Compound 343]
[1]
  inhibition at 25 µM: 52%
Mouse mast cells (MC/9)
  inhibition at 25 µM: 40%
Guinea pig ileum
  inhibition at 30 µM: 48.9%

## C/C=C1/CCC2C3C(CC[C@]12C)[C@@]1(C)CCCCC1[C@@H](O)[C@@H]3O (stereo partly drawn) [Compound 346]
[1]
  inhibition at 25 µM: 16%
Mouse mast cells (MC/9)
  inhibition at 25 µM: 61%
Guinea pig ileum
  inhibition at 30 µM: 62.5%

## C[C@@]12CCCC1C1C(CC2)[C@@]2(C)CC[C@H](O)CC2[C@@H](O)[C@@H]1O (stereo partly drawn) [Compound 351]
[1]
  inhibition at 25 µM: 33.6%
Guinea pig ileum
  inhibition at 30 µM: 43.6%

## CC(C)CCCC(C)C1CCC2C3C(O)C(O)C4CC(O)CCC4(C)C3CCC12C (stereo not drawn) [Compound 354]
[1]; 25 μM compound
  Percentage Inhibition (mean) RBL-2H3 Cells: 30%
Mouse mast cells (MC/9); 25 μM compound
  Percentage Inhibition (mean) MC/9 cells: 76%

## CC[C@H]1CCC2C3C(CC[C@@]21C)[C@@]1(C)C[C@@H](O)C(O)CC1[C@@H](O)[C@@H]3O (stereo partly drawn) [Compound 360]
[1]
  inhibition at 25 µM: 76%
Guinea pig ileum
  inhibition at 30 µM: 50.5%

## CC[C@H]1CCC2C3C(CC[C@@]21C)[C@@]1(C)CC[C@@H](O)CC1[C@H]1OC(C)(C)O[C@H]31 (stereo partly drawn) [Compound 361]
Mouse mast cells (MC/9)
  inhibition at 25 µM: 13%
Guinea pig ileum
  inhibition at 30 µM: 55%
